Where a name gives a salt, the structure may show the parent alone. Read-outs that look alike come from different tables or passages of the source.
Tested on: HIV-1 strain 92HT599
Test: Antiviral activity against HIV-1 strain 92HT599 in MT2 cells (p24 estimation)
Assay type: cell-based
Details: HIV-1 92HT599, ~96 hours
Description: Example 77: Evaluation of Compounds Antiviral Activity Against HIV-1 Strain 92HT599 in MT2 Cells
MT2 cells were infected with HIV-1 strain 92HT599 (10 TCID 50/30000 cells). The infected cells were plated at the concentration of 30,000 cells per well in 96 well plate. Test compound was added to the micro plate in defined format with the final concentration of DMSO (vehicle) is not more than 1%. Incubation was carried out in CO2 incubator for ˜96 hours for viral infection. At the end of incubation period an aliquot from each well was taken for p24 estimation. The quantitation of p24 is an index for antiviral activity of the compound. Percent inhibition was calculated with reference to control values (vehicle controls). p24 estimation was carried out using Advance biosciences kit as per the procedure detailed by supplier.

[1] = Human immunodeficiency virus 1, 0% serum binding assay, read-out: IC50 0% serum
[2] = Human immunodeficiency virus 1, 40% serum binding assay, read-out: IC50 40% serum

Cc1ccc(C(=O)NC2(C(=O)N[C@@]34CC[C@]5(C)[C@H](CC[C@@H]6[C@@]7(C)CC[C@H](OC(=O)[C@H]8C[C@@H](C(=O)O)C8(C)C)C(C)(C)[C@@H]7CC[C@]65C)C3=C(C(C)C)C(=O)C4)CCC2)cn1 [Example 43, (1R,3S)-3-((((3aR,5aR,5bR,7aR,9S,11aR,11bR,13aS)-1-isopropyl-5a,5b,8,8,11a-pentamethyl-3a-(1-(6-methylnicotinamido)cyclobutane-1-carboxamido)-2-oxo-3,3a,4,5,5a,5b,6,7,7a,8,9,10,11,11a,11b,12,13,13a-octadecahydro-2H-cyclopenta[a]chrysen-9-yl)oxy)carbonyl)-2,2-dimethylcyclobutane-1-carboxylic acid]
IC50 [1]: < 3 nM
IC50 [2]: < 50 nM

CC(C)C1=C2[C@H]3CC[C@@H]4[C@@]5(C)CC[C@H](OC(=O)[C@H]6C[C@@H](C(=O)O)C6(C)C)C(C)(C)[C@@H]5CC[C@@]4(C)[C@]3(C)CC[C@@]2(NC(=O)C2(NC(=O)c3ccc(Cl)cc3)CCCC2)CC1=O [Example 46, (1R,3S)-3-((((3aR,5aR,5bR,7aR,9S,11aR,11bR,13aS)-3a-(1-(4-chlorobenzamido)cyclopentane-1-carboxamido)-1-isopropyl-5a,5b,8,8,11a-pentamethyl-2-oxo-3,3a,4,5,5a,5b,6,7,7a,8,9,10,11,11a,11b,12,13,13a-octadecahydro-2H-cyclopenta[a]chrysen-9-yl)oxy)carbonyl)-2,2-dimethylcyclobutane-1-carboxylic acid]
IC50 [1]: < 3 nM
IC50 [2]: < 50 nM

CC(C)C1=C2[C@H]3CC[C@@H]4[C@@]5(C)CC[C@H](OC(=O)[C@H]6C[C@@H](C(=O)O)C6(C)C)C(C)(C)[C@@H]5CC[C@@]4(C)[C@]3(C)CC[C@@]2(NC(=O)C2(NC(=O)c3ccc(Cl)cc3)CCCCC2)CC1=O [Example 48, (1R,3S)-3-((((3aR,5aR,5bR,7aR,9S,11aR,11bR,13aS)-3a-(1-(4-chlorobenzamido)cyclohexane-1-carboxamido)-1-isopropyl-5a,5b,8,8,11a-pentamethyl-2-oxo-3,3a,4,5,5a,5b,6,7,7a,8,9,10,11,11a,11b,12,13,13a-octadecahydro-2H-cyclopenta[a]chrysen-9-yl)oxy)carbonyl)-2,2-dimethylcyclobutane-1-carboxylic acid]
IC50 [1]: < 3 nM
IC50 [2]: < 50 nM

Cc1ccc(C(=O)NC2(C(=O)N[C@@]34CC[C@]5(C)[C@H](CC[C@@H]6[C@@]7(C)CC[C@H](OC(=O)[C@H]8C[C@@H](C(=O)O)C8(C)C)C(C)(C)[C@@H]7CC[C@]65C)C3=C(C(C)C)C(=O)C4)CCCCC2)cn1 [Example 49, (1R,3S)-3-((((3aR,5aR,5bR,7aR,9S,11aR,11bR,13aS)-1-isopropyl-5a,5b,8,8,11a-pentamethyl-3a-(1-(6-methylnicotinamido)cyclohexane-1-carboxamido)-2-oxo-3,3a,4,5,5a,5b,6,7,7a,8,9,10,11,11a,11b,12,13,13a-octadecahydro-2H-cyclopenta[a]chrysen-9-yl)oxy)carbonyl)-2,2-dimethylcyclobutane-1-carboxylic acid]
IC50 [1]: < 3 nM
IC50 [2]: < 50 nM

Cc1ccc(C(=O)NC2(C(=O)N[C@@]34CC[C@]5(C)[C@H](CC[C@@H]6[C@@]7(C)CC[C@H](OC(=O)[C@H]8C[C@@H](C(=O)O)C8(C)C)C(C)(C)[C@@H]7CC[C@]65C)C3=C(C(C)C)C(=O)C4)CCCCC2)cc1 [Example 50, (1R,3S)-3-((((3aR,5aR,5bR,7aR,9S,11aR,11bR,13aS)-1-isopropyl-5a,5b,8,8,11a-pentamethyl-3a-(1-(4-methylbenzamido)cyclohexane-1-carboxamido)-2-oxo-3,3a,4,5,5a,5b,6,7,7a,8,9,10,11,11a,11b,12,13,13a-octadecahydro-2H-cyclopenta[a]chrysen 9-yl)oxy)carbonyl)-2,2-dimethylcyclobutane-1-carboxylic acid]
IC50 [1]: < 3 nM
IC50 [2]: < 50 nM

CC(C)C1=C2[C@H]3CC[C@@H]4[C@@]5(C)CC[C@H](OC(=O)[C@H]6C[C@@H](C(=O)O)C6(C)C)C(C)(C)[C@@H]5CC[C@@]4(C)[C@]3(C)CC[C@@]2(NC(=O)C(C)(C)NC(=O)CN(C)C)CC1=O [Example 59, (1R,3S)-3-((((3aR,5aR,5bR,7aR,9S,11aR,11bR,13aS)-3a-(2-(2-(dimethylamino)acetamido)-2-methylpropanamido)-1-isopropyl-5a,5b,8,8,11a-pentamethyl-2-oxo-3,3a,4,5,5a,5b,6,7,7a,8,9,10,11,11a,11b,12,13,13a-octadecahydro-2H-cyclopenta[a]chrysen-9-yl)oxy)carbonyl)-2,2-dimethylcyclobutane-1-carboxylic acid]
IC50 [1]: < 3 nM
IC50 [2]: 50 to 200 nM

Cc1cccc(C(=O)NC(C)(C)C(=O)N[C@@]23CC[C@]4(C)[C@H](CC[C@@H]5[C@@]6(C)CC[C@H](OC(=O)[C@H]7C[C@@H](C(=O)O)C7(C)C)C(C)(C)[C@@H]6CC[C@]54C)C2=C(C(C)C)C(=O)C3)n1 [Example 60, (1R,3S)-3-((((3aR,5aR,5bR,7aR,9S,11aR,11bR,13aS)-1-isopropyl-5a,5b,8,8,11a-pentamethyl-3a-(2-methyl-2-(6-methylpicolinamido)propanamido)-2-oxo-3,3a,4,5,5a,5b,6,7,7a,8,9,10,11,11a,11b,12,13,13a-octadecahydro-2H-cyclopenta[a]chrysen-9-yl)oxy)carbonyl)-2,2-dimethylcyclobutane-1-carboxylic acid]
IC50 [1]: < 3 nM
IC50 [2]: < 50 nM

CC(C)C1=C2[C@H]3CC[C@@H]4[C@@]5(C)CC[C@H](OC(=O)[C@H]6C[C@@H](C(=O)O)C6(C)C)C(C)(C)[C@@H]5CC[C@@]4(C)[C@]3(C)CC[C@@]2(NC(=O)C(C)(C)NCc2ccccn2)CC1=O [Example 67, (1R,3S)-3-((((3aR,5aR,5bR,7aR,9S,11aR,11bR,13aS)-1-isopropyl-5a,5b,8,8,11a-pentamethyl-3a-(2-methyl-2-((pyridin-2-ylmethyl)amino)propan amido)-2-oxo-3,3a,4,5,5a,5b,6,7,7a,8,9,10,11,11a,11b,12,13,13a-octadecahydro-2H-cyclopenta[a]chrysen-9-yl)oxy)carbonyl)-2,2-dimethylcyclobutane-1-carboxylic acid]
IC50 [1]: < 3 nM
IC50 [2]: < 50 nM

CC(C)C1=C2[C@H]3CC[C@@H]4[C@@]5(C)CC[C@H](OC(=O)[C@H]6C[C@@H](C(=O)O)C6(C)C)C(C)(C)[C@@H]5CC[C@@]4(C)[C@]3(C)CC[C@@]2(NC(=O)C(C)(C)NCc2ccc(Cl)cc2)CC1=O [Example 68]
IC50 [1]: 3.01 to 10 nM
IC50 [2]: < 50 nM

CC(C)C1=C2[C@H]3CC[C@@H]4[C@@]5(C)CC[C@H](OC(=O)[C@H]6C[C@@H](C(=O)O)C6(C)C)C(C)(C)[C@@H]5CC[C@@]4(C)[C@]3(C)CC[C@@]2(NC(=O)C(C)(C)NCC2(c3ccc(Cl)cc3)CC2)CC1=O [Example 69, (1R,3S)-3-((((3aR,5aR,5bR,7aR,9S,11aR,11bR,13aS)-3a-(2-(((1-(4-chlorophenyl)cyclopropyl)methyl)amino)-2-methylpropanamido)-1-isopropyl-5a,5b,8,8,11a-pentamethyl-2-oxo-3,3a,4,5,5a,5b,6,7,7a,8,9,10,11,11a,11b,12,13,13a-octadecahydro-2H-cyclopenta[a]chrysen-9-yl)oxy)carbonyl)-2,2-dimethylcyclobutane-1-carboxylic acid]
IC50 [1]: > 10 nM
IC50 [2]: 50 to 200 nM

Cc1ccc(NC(=O)NC(C)(C)C(=O)N[C@@]23CC[C@]4(C)[C@H](CC[C@@H]5[C@@]6(C)CC[C@H](OC(=O)[C@H]7C[C@@H](C(=O)O)C7(C)C)C(C)(C)[C@@H]6CC[C@]54C)C2=C(C(C)C)C(=O)C3)cn1 [Example 71, (1R,3S)-3-((((3aR,5aR,5bR,7aR,9S,11aR,11bR,13aS)-1-isopropyl-5a,5b,8,8,11a-pentamethyl-3a-(2-methyl-2-(3-(6-methylpyridin-3-yl)ureido)propanamido)-2-oxo-3,3a,4,5,5a,5b,6,7,7a,8,9,10,11,11a,11b,12,13,13a-octadecahydro-2H-cyclopenta[a]chrysen-9-yl)oxy)carbonyl)-2,2-dimethylcyclobutane-1-carboxylic acid]
IC50 [1]: < 3 nM
IC50 [2]: 50 to 200 nM

CC(C)C1=C2[C@H]3CC[C@@H]4[C@@]5(C)CC[C@H](OC(=O)[C@H]6C[C@@H](C(=O)O)C6(C)C)C(C)(C)[C@@H]5CC[C@@]4(C)[C@]3(C)CC[C@@]2(NC(=O)C(C)(C)NCCN(C)C)CC1=O [Example 73, (1R,3S)-3-((((3aR,5aR,5bR,7aR,9S,11aR,11bR,13aS)-3a-(2-((2-(dimethylamino)ethyl)amino)-2-methylpropanamido)-1-isopropyl-5a,5b,8,8,11a-pentamethyl-2-oxo-3,3a,4,5,5a,5b,6,7,7a,8,9,10,11,11a,11b,12,13,13a-octadecahydro-2H-cyclopenta[a]chrysen-9-yl)oxy)carbonyl)-2,2-dimethylcyclobutane-1-carboxylic acid]
IC50 [1]: < 3 nM
IC50 [2]: < 50 nM

CC(C)C1=C2[C@H]3CC[C@@H]4[C@@]5(C)CC[C@H](OC(=O)[C@H]6C[C@@H](C(=O)O)C6(C)C)C(C)(C)[C@@H]5CC[C@@]4(C)[C@]3(C)CC[C@@]2(NC(=O)C(C)(C)N)CC1=O [Example 74, (1R,3S)-3-((((3aR,5aR,5bR,7aR,9S,11aR,11bR,13aS)-3a-(2-amino-2-methylpropanamido)-1-isopropyl-5a,5b,8,8,11a-pentamethyl-2-oxo-3,3a,4,5,5a,5b, 6,7,7a,8,9,10,11,11a,11b,12,13,13a-octadecahydro-2H-cyclopenta[a]chrysen-9-yl)oxy)carbonyl)-2,2-dimethylcyclobutane-1-carboxylic acid hydrochloride]
IC50 [1]: < 3 nM
IC50 [2]: < 50 nM

From patent US11034718B2, “C-3 novel triterpenone with C-17 reverse amide derivatives as HIV inhibitors” (HETERO LABS LIMITED, priority 2015, dated 2021)
